The source of these data is publication PMC10058894, “Bioactive C21 Steroidal Glycosides from Euphorbia kansui Promoted HepG2 Cell Apoptosis via the Degradation of ATP1A1 and Inhibited Macrophage Polarization under Co-Cultivation” (Molecules, 2023).

What all share (assay type): cell-based
One data set addresses ATP1A1 (Homo sapiens, UniProt P05023). Put plainly: ATP1A1 level and location in HepG2 cells (western blot, fluorescence staining, lysosomal colocalization). More on the design: we focused on the regulatory effect of 5 on ATP1A1 in HepG2 cells; endogenous in cells; host or cells: HepG2. Particulars: HepG2; 5 25 μmol∙L−1, digitonin 10, MK 2206 40, FR 180204 200 nmol∙L−1; western blot. The protocol: HepG2 cells (4 × 10^5 cells/well) were incubated in confocal dishes with DMEM for 24 h and then treated with compounds for 48 h. Then, the cells were treated with 0.1% Triton X-100 for 10 min and washed with PBS five times. Finally, the cells were dyed with anti-ATP1A1 at 4 °C overnight. Nuclear staining with DAPI (1 μg∙mL^−1) was added for 7 min in the dark, and the cells were washed. The stained images were captured under a laser scanning confocal microscope (Nikon A1 AIR MP+, Tokyo, Japan). HepG2 cells (5 × 10^5 cells/well) were incubated in 6-well plates in complete DMEM. Cells were treated with compounds for 24 h. Then, the cells were stained with Annexin V/PI for 30 min at 4 °C in the dark, and apoptosis analysis was carried out by laser scanning confocal microscopy.
Protein samples were prepared using a RIPA lysis buffer. The concentration of the protein was analyzed using a nucleic acid and protein microanalyzer (Molecular Devices, San Jose, CA, USA). SDS–PAGE was performed to separate the proteins, which were then electrotransferred onto a PVDF membrane. The membrane was incubated with antibodies at 4 °C overnight. Next, the membrane was washed and incubated with an HRP-conjugated secondary antibody (Beyotime, BeiJing, China). Finally, signals were detected by the ECL method (Beyotime, BeiJing, China) and analyzed using ImageJ software.
On the technique in general: A western blot detects proteins with antibodies after separation by electrophoresis.

Data set [1] deals with NO production of LPS-stimulated RAW264.7 cells. Put plainly: Nitric oxide production in LPS-stimulated RAW264.7 cells (Griess). The conditions noted are these: LPS (1 μg/mL)-stimulated RAW264.7 cells, 24 h, read-out: RAW264.7 IC50 (inhibition of nitric oxide production). The protocol: (§1) RAW264.7 cells (8 × 10^4 cells/well) were incubated in 96T wells with DMEM for 24 h and then treated with compounds and LPS (1 μg/mL) for 24 h; this included the control group and LPS group. Then, the cell supernatant was collected for nitric oxide production assay. Next, 100 uL/well PBS was added to 96T wells, then 0.5% MTT (Sigma, Saint Louis, MO, USA) was added to 20 μL/well for 3.5 h. DMSO (150 μL/well) was added to dissolve the purple formazan. Cells were agitated for 15 min at room temperature, and the absorbance at 490 nm was recorded by SpetraMax M2 (Molecular Devices, San Jose, CA, USA). The NO inhibition rate (%) = (ODLPS group − ODcompound group)/(ODLPS group-ODcontrol group) × 100%. The IC50 value refers to the inhibitory of nitric oxide production of LPS-stimulated RAW264.7 cells. Then, 70 uL of each cell supernatant sample was added into a new 96T plate, and Griess A and Griess B were added separately. Then, the absorbance value at 540 nm was detected and then brought into the standard curve to assay the concentration of NO. The cell survival rate (%) = (ODcompound group − ODblank group)/(ODcontrol group − ODblank group) × 100%. The half concentration of the cell death (CC50) value refers to the concentration of compound 5 when 50% of RAW264.7 cells die. The iNOS inhibitor ([…], L-NMMA) was selected as the positive control. The levels of cytokines (IL-1β, IFN-γ, IL-10, TNF-α, and IL-6) in the cell supernatant were determined using an ELISA kit (Novus Biologicals, Shanghai, China, Lot: 834472, 770118, 772051, 486956, 602865). When the process was conducted according to the manufacturer’s instructions, the absorbance was read at 450 nm/570 nm in a SpectraMax 340PC microplate spectrophotometer (Molecular Devices, San Jose, CA, USA).
For orientation: Griess reagent forms a coloured azo dye with nitrite.

In another data set the test system is RAW264.7 cells. Briefly: MTT assay, cell viability of RAW264.7 cells. Particulars: half inhibitory of RAW264.7 cells, 24 h. The protocol:
(§2) HepG2 cells (1 × 10^4 cells/well) or RAW264.7 cells ([…]) were incubated in 96T wells for 24 h. Then, HepG2 cells were treated with compounds or Adriamycin for 48 h. In addition, RAW264.7 cells were treated with compounds for 24 h. Then, 0.5% MTT (Sigma, Saint Louis, MO, USA) was added to 20 μL/well for 3.5 h. The supernatant was discarded, and DMSO (150 μL/well) was added to dissolve the purple formazan. Cells were agitated for 15 min at room temperature, and the absorbance at 490 nm was recorded by SpetraMax M2 (Molecular Devices, San Jose, CA, USA).
as §1
(Tetrazolium dyes change colour on reduction, which living cells bring about.)

The next data set relates to HepG2 cells. Briefly: MTT assay, cell viability of HepG2 cells. The protocol:
as §2

The nature of data set [2]: MTT assay, cell viability of RAW264.7 cells. Particulars: mouse, half inhibitory of RAW264.7 cells. The protocol:
as §2, §1

The test system of another data set is Huh-7 cells. Put plainly: MTT assay, cell viability of Huh-7 cells. Particulars: Homo sapiens, Huh-7; MTT; read-out: Huh-7 IC50. The source says:
2. The anti-proliferation of compound 5 on Huh-7 cells
We tested another hepatoma cell line (Huh-7) to validate effect of compound 5. L02 (normal hepatocytes), HepG2 and Hub-7 cells were used to discuss the effect of 5. […]
of 5 on Huh-7 cell was (24.49±[…]) μM (Table S1). The morphology and apoptosis of the cells by reversed microscope and flow cytometry, respectively.
Second, the expression and phosphorylation of ATP1A1 were detected by Western blot analysis in L02, HepG2 and Huh-7 cells. Compared with L02 group, the expression of ATP1A1 was higher in HepG2 and Huh-7 cells, but there was no significant difference in the phosphorylation of ATP1A1 (Figure […]
At last, the effect of 5 on the expression and the phosphorylation of ATP1A1 in Huh-7 cells was […]
the phosphorylation of ATP1A1. The result was consistent with that observed in HepG2 cells (Figure […]
Table S1 Cell viability of Huh-7 cell treated by compound 5

Read-outs that look alike come from different tables or passages of the source.

`Nc1[nH]nc2nnc(-c3c(-c4ccccc4)nn4ccccc34)cc12` [FR 180204, reference compound]: at ATP1A1, the “expression of ATP1A1 (comparison with inhibitors)” value is “not similarly observed”.

Turning to `NC1(c2ccc(-c3nc4ccn5c(=O)[nH]nc5c4cc3-c3ccccc3)cc2)CCC1` [MK 2206, reference compound], at ATP1A1, the “expression of ATP1A1 (comparison with inhibitors)” value is “not similarly observed”.

A word on the IC50: it is the midpoint of a concentration-inhibition curve. By CC50 is commonly meant the concentration giving 50% cytotoxicity. Low values mean harm at low concentration, high ones better tolerance by the cells. Cynotophylloside J [Compound 8]: the IC50 was 17.4 ± 3.01 µM in data set [1] and > 50 µM with HepG2 cells (48 h). The CC50 in the data set with RAW264.7 cells was > 50 µM.

Cynotophylloside B [Compound 2]: the IC50 stood at 9.1 ± 2.27 µM in data set [1] and 41.1 ± 6.05 µM with HepG2 cells (48 h). For the same molecule, the CC50 with RAW264.7 cells is > 50 µM.

For the molecule `C[C@@H]1CC[C@@]2(OC1)O[C@H]1[C@@H](O)[C@H]3[C@@H]4CC[C@H]5C[C@@H](O[C@@H]6O[C@H](CO)[C@H](O[C@@H]7O[C@H](CO)[C@@H](O)[C@H](O[C@@H]8OC[C@@H](O)[C@H](O)[C@H]8O)[C@H]7O[C@@H]7O[C@H](CO)[C@H](O)[C@H](O[C@@H]8O[C@H](CO)[C@@H](O)[C@H](O)[C@H]8O)[C@H]7O)[C@H](O)[C@H]6O)[C@H](O)C[C@]5(C)[C@H]4CC[C@]3(C)[C@H]1[C@@H]2C` [digitonin, reference compound], the “expression of ATP1A1 (comparison with inhibitors)” value on ATP1A1 is “not similarly observed”.

Eupokanu G [Compound 1]: the IC50 in data set [1] is > 50 µM; with HepG2 cells (48 h) it was 46.4 ± 3.09 µM. The CC50 in the data set on RAW264.7 cells was > 50 µM.

As for “Kidjoranin 3-O-α-diginopyranosyl-(1→4)-β-cymaropyranoside [Compound 10]”, the IC50 is 2.78 ± 0.44 µM in data set [1] and 22.7 ± 4.02 µM with HepG2 cells (48 h). Moreover, the CC50 with RAW264.7 cells was found to be 24.1 ± 3.24 µM.

Regarding “Kidjoranin-3-O-β-D-cymaropyranoside [Compound 6]”, the IC50 worked out at 3.32 ± 0.43 µM in data set [1] and 27.3 ± 3.48 µM in the data set with HepG2 cells (48 h). In the data set on RAW264.7 cells, half-maximal cytotoxicity (CC50) was put at 35.2 ± 5.12 µM.

Turning to `CC(=O)[C@]1(O)CC[C@@]2(O)[C@]1(C)[C@H](O)C[C@@H]1[C@@]3(C)CC[C@H](O)CC3=CC[C@]12O` [Compound 3, Deacylmetaplexigenin], the IC50 (in data set [1]; in the data set with HepG2 cells (48 h)) was > 50 µM in each case. Further, in the data set on RAW264.7 cells, the CC50 was > 50 µM.

Turning to “Kidjoranin 3-O-β-digitoxopyranoside [Compound 11]”, the IC50 (in data set [1]; in the data set on HepG2 cells (48 h)) was > 50 µM each time. Moreover, the CC50 in the data set on RAW264.7 cells is > 50 µM.

For the molecule `[H]/N=C(/NC)NCCC[C@H](N)C(=O)O` [L-NMMA, NG-monnomycin-L-arginine, reference compound], the IC50 in data set [1] (Mus musculus) is 21.2 ± 3.26 µM. Moreover, the CC50 at 24 h in data set [2] is > 50 µM.

In the case of `COc1cccc2c1C(=O)c1c(O)c3c(c(O)c1C2=O)C[C@@](O)(C(=O)CO)C[C@@H]3O[C@H]1C[C@H](N)[C@H](O)[C@H](C)O1` [Adr, adriamycin, reference compound], the IC50 in the data set on HepG2 cells (Homo sapiens, HepG2, 48 h) came to 6.93 ± 1.23 µM; in the data set on HepG2 cells (Homo sapiens, HepG2, fractions A–E, 48 h), 5.98 ± 2.06 µg/mL; in the data set with Huh-7 cells, 4.49 ± 0.96 µM.

For the molecule `CC(=O)[C@]1(O)CC[C@@]2(O)[C@]1(C)[C@H](OC(=O)/C=C/c1ccccc1)C[C@@H]1[C@@]3(C)CC[C@H](O)CC3=CC[C@]12O` [Compound 4, Kidjolanin], the IC50 in data set [1] is 30.7 ± 4.08 µM; with HepG2 cells (48 h) it was > 50 µM. Besides, the CC50 in the data set on RAW264.7 cells is > 50 µM.

“Caudatin 3-O-β-D-digitoxopyranoside [Compound 12]”: the IC50 (in data set [1]; in the data set with HepG2 cells (48 h)) was > 50 µM each time. Besides, the CC50 with RAW264.7 cells was > 50 µM.

Consider `CC1(C)CC[C@]2(C(=O)O)CC[C@]3(C)C(=CC[C@@H]4[C@@]5(C)C[C@@H](O)[C@H](O)C(C)(C)[C@@H]5CC[C@]43C)[C@@H]2C1` [Compound 9, Maslinic acid], for which the IC50 was 17.4 ± 2.21 µM in data set [1] (Mus musculus) and > 50 µM in the data set with HepG2 cells (Homo sapiens, HepG2, 48 h). The CC50 at 24 h in data set [2] was > 50 µM.

`CO[C@H]1C[C@@H](O[C@H]2[C@H](C)O[C@H](O[C@H]3[C@@H](C)O[C@H](O[C@H]4[C@@H](OC)C[C@H](O[C@@H]5CC[C@]6(C)C(=CCC(=O)[C@H]6C[C@H](OC(=O)/C=C/c6ccccc6)[C@]6(C)C(=O)CC[C@]6(O)[C@@H](C)OC(C)=O)C5)O[C@@H]4C)C[C@H]3OC)C[C@H]2OC)O[C@H](C)[C@H]1O` [Compound 7, Wilfoside G]: the IC50 was 1.77 ± 0.34 µM in data set [1] and 12.6 ± 2.98 µM in the data set with HepG2 cells (48 h). The CC50 with RAW264.7 cells turned out to be 26.2 ± 2.22 µM.
